24 molecules from patent US11649238B2, “Substituted pyrazolo[1,5-a]pyrimidines as PI4K inhibitors” (GLAXOSMITHKLINE INTELLECTUAL PROPERTY DEVELOPMENT LIMITED, priority 2018, dated 2023) can be followed below.

In this assay the target is T1, human PI4KIII-beta 13-828 (D316-330) (Homo sapiens, UniProt Q9UBF8).
T1 construct: human PI4KIII-beta 13-828 (D316-330)
T1 sequence (Q9UBF8 1-801 isoform Q9UBF8-2): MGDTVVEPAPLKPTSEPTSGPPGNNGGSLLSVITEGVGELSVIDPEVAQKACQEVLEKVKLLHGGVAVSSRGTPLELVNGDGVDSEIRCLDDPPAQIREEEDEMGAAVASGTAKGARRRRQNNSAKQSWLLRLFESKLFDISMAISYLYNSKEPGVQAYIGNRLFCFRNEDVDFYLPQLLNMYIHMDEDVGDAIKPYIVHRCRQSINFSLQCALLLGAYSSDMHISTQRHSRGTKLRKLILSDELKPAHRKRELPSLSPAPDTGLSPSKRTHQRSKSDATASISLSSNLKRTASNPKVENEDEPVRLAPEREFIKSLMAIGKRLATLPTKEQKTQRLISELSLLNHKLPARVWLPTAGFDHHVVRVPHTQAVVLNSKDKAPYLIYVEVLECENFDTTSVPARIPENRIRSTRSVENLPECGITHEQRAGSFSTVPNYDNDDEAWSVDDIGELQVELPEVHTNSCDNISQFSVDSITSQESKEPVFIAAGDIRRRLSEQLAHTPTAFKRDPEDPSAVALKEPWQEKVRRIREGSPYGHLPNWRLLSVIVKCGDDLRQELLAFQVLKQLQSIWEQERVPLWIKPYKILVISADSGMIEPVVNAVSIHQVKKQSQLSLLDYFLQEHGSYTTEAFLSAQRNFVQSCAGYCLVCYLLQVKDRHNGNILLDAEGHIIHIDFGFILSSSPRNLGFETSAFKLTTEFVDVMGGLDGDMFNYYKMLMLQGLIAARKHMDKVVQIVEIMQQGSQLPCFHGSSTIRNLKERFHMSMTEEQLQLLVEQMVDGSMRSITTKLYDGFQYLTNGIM
As to the kind of experiment: PI4 KB Activity Assay (ADP-GLO Kinase assay). In kind it is biochemical. Particulars: 1 mM ATP, 60 μM phosphatidylinositol, 3 hours at room temperature; read-out: mean pIC50 (converted). How it is done: The in vitro inhibition of human PI4KIII-beta 13-828 (D316-330) activity was determined by using the ADP-GLO Kinase assay kit from Promega. Inhibitors were dissolved in 100% DMSO at a concentration of 1 mM. Dilutions were prepared in 100% DMSO using a 1 in 3 serial step dilution. A 60 nL stamp from an 11-point titration was transferred to a white low volume 384 well Greiner assay plate ensuring a final DMSO concentration of 1% across the plate and a top final concentration of inhibitor of 10 μM. The PI4KIII-beta assay contained 25 mM Hepes pH 7.5 (NaOH), 10 mM MgCl2, 0.5 mM EGTA, 0.1% Triton X-100, 2 mM TCEP, and 0.1 mg/ml BSA, 1 mM ATP, 60 μM phosphatidylinositol, and 1.5 nM human PI4K-beta 13-828 (D316-330) in a total volume of 6 μL. The assay was initiated with the addition of enzyme, covered, and incubated at room temperature for 3 hours. The assays were stopped with the addition of 6 μl ADP-GLO Reagent containing 0.1% CHAPS to deplete the unconsumed ATP. The plates were incubated at room temperature for 60 min and then 12 μl of the Kinase Detection Reagent containing 0.1% CHAPS was added to convert ADP to ATP and introduce luciferase and luciferin. After 40 min incubation at room temperature the luminescent signal was read on a BMG Labtech PHERAstar FS with the following settings; Gain 3600, Focal height 13.7 mm, measurement interval time 1 s, Settling time 0.2 s. The inhibitory effect of the PI4K-beta activity of the compounds was evaluated by the IC50 of the response relative to the high, no compound, and low, no enzyme, controls by fitting to the four parameter dose response question.
In the case of `Cc1ccc(-c2c(C)nn3c(NCc4cccc(-c5nccn5C)c4)cc(C(C)(C)O)nc23)cc1C(=O)N(C)[C@H](C)CO` [Compound 39], the IC50 was at most 3.98 nM.

For `Cc1ccc(-c2c(C)nn3c(NCc4cccc(-c5nccn5C)c4)cc(C(C)(C)O)nc23)cc1C(=O)N(C)C(C)CO` (stereo not drawn) [Compound 40], the IC50 is at most 3.98 nM. Turning to `Cc1ccc(-c2c(C)nn3c(NCc4cccc(-c5nccn5C)c4)cc(C(C)(C)O)nc23)cc1C(=O)N1CCC(O)C1` (stereo not drawn) [Compound 41], the IC50 is at most 3.98 nM. In the case of `COc1ccc(-c2c(C)nn3c(NCc4cccc(-c5nccn5C)c4)cc(C(C)(C)O)nc23)cc1C(=O)N(C)C(C)CO` (stereo not drawn) [Compound 42], the IC50 was at most 3.98 nM.

As to `Cc1ccc(-c2c(C)nn3c(NCc4cccc(-c5nccn5C)c4)cc(C(C)(C)O)nc23)cc1C(=O)N(C)CCO` [Compound 43, N-(2-hydroxyethyl)-5-(5-(2-hydroxypropan-2-yl)-2-methyl-7-((3-(1-methyl-1H-imidazol-2-yl)benzyl)amino)pyrazolo[1,5-a]pyrimidin-3-yl)-N,2-dimethylbenzamide], the IC50 is at most 3.98 nM. Regarding `COc1ccc(-c2c(C)nn3c(NCc4cccc(-c5nccn5C)c4)cc(C(C)(C)O)nc23)cc1C(=O)N1CCCC1CO` (stereo not drawn) [Compound 44], the IC50 was at most 3.98 nM. On to `Cc1ccc(-c2c(C)nn3c(NCc4cccc(-c5nccn5C)c4)cc(C(C)(C)O)nc23)cc1C(=O)N(C)C1CCOCC1` [Compound 45], for which the IC50 was at most 3.98 nM.

On to `COc1ccc(-c2c(C)nn3c(NCc4cccc(-n5cccn5)c4)cc(C(C)(C)O)nc23)cc1C(=O)N(C)CCO` [Compound 46], for which the IC50 was at most 3.98 nM. The same measure for `Cc1ccc(-c2c(C)nn3c(NCc4cccc(-n5cccn5)c4)cc(C(C)(C)O)nc23)cc1C(=O)N(C)CCO` [Compound 47]: at most 3.98 nM; for `Cc1nn2c(NCc3cccc(-n4cccn4)c3)cc(C(C)(C)O)nc2c1-c1ccc(Cl)c(C(=O)N(C)CCO)c1` [Compound 48]: at most 3.98 nM. For `COc1ccc(-c2c(C)nn3c(NCc4cccc(-n5cccn5)c4)cc(C(C)(C)O)nc23)cc1C(=O)N1CCC[C@@H]1CO` [Compound 49] the value was at most 3.98 nM; for `Cc1ccc(-c2c(C)nn3c(NCc4cccc(-n5cccn5)c4)cc(C(C)(C)O)nc23)cc1C(=O)N1CC[C@H](O)C1` [Compound 50], at most 3.98 nM.

Take `COc1ccc(-c2c(C)nn3c(NCc4cccc(-n5cccn5)c4)cc(C(C)(C)O)nc23)cc1C(=O)N1CCC(C)(O)C1` (stereo not drawn) [Compound 51]: the IC50 is at most 3.98 nM.

`COc1ccc(-c2c(C)nn3c(NCc4cccc(-n5cccn5)c4)cc(C(C)(C)O)nc23)cc1C(=O)N1CC[C@H](O)C1` [Compound 52]: the IC50 is at most 3.98 nM.

Regarding `COc1ccc(-c2c(C)nn3c(NCc4cccc(-c5nccn5C)c4)cc(C(C)CO)nc23)cc1S(=O)(=O)CCO` (stereo not drawn) [Compound 53, 2-(3-(3-((2-Hydroxyethyl)sulfonyl)-4-methoxyphenyl)-2-methyl-7-((3-(1-methyl-1H-imidazol-2-yl)benzyl)amino)pyrazolo[1,5-a]pyrimidin-5-yl)propan-1-ol], the IC50 was at most 3.98 nM. The same measure for `Cc1ccc(-c2c(C)nn3c(NCc4cccc(-c5nccn5C)c4)cc(C(C)(C)CO)nc23)cc1C(=O)N(C)CCCO` [Compound 55, 5-(5-(1-Hydroxy-2-methylpropan-2-yl)-2-methyl-7-((3-(1-methyl-1H-imidazol-2-yl)benzyl)amino)pyrazolo[1,5-a]pyrimidin-3-yl)-N-(3-hydroxypropyl)-N,2-dimethylbenzamide]: at most 3.98 nM; for `COc1ccc(-c2c(C)nn3c(NCc4cccc(-c5nccn5C)c4)cc(C(C)(C)CO)nc23)cc1S(=O)(=O)CCO` [Compound 56, 2-(3-(3-((2-Hydroxyethyl)sulfonyl)-4-methoxyphenyl)-2-methyl-7-((3-(1-methyl-1H-imidazol-2-yl)benzyl)amino)pyrazolo[1,5-a]pyrimidin-5-yl)-2-methylpropan-1-ol]: at most 3.98 nM. For `Cc1ccc(-c2c(C)nn3c(NCc4cccc(-c5nccn5C)c4)cc(C(C)(C)O)nc23)cc1C(=O)N(C)C1CCOC1` (stereo not drawn) [Compound 59, 5-(5-(2-Hydroxypropan-2-yl)-2-methyl-7-((3-(1-methyl-1H-imidazol-2-yl)benzyl)amino)pyrazolo[1,5-a]pyrimidin-3-yl)-N,2-dimethyl-N-(tetrahydrofuran-3-yl)benzamide] the value was at most 3.98 nM; for `Cc1ccc(-c2c(C)nn3c(NCc4cccc(-c5nccn5C)c4)cc(C(C)(C)O)nc23)cc1C(=O)N(C)CC(C)O` (stereo not drawn) [Compound 61], at most 3.98 nM; for `COc1ccc(-c2c(C)nn3c(NCc4cccc(-c5nccn5C)c4)cc(C4CCOCC4)nc23)cc1S(=O)(=O)CCO` [Compound 64, 2-((2-Methoxy-5-(2-methyl-7-((3-(1-methyl-1H-imidazol-2-yl)benzyl)amino)-5-(tetrahydro-2H-pyran-4-yl)pyrazolo[1,5-a]pyrimidin-3-yl)phenyl)sulfonyl)ethan-1-ol], at most 3.98 nM. For `CCC(CO)c1cc(NCc2cccc(-c3nccn3C)c2)n2nc(C)c(-c3ccc(C)c(C(=O)N(C)CCCO)c3)c2n1` (stereo not drawn) [Compound 65, 5-(5-(1-Hydroxybutan-2-yl)-2-methyl-7-((3-(1-methyl-1H-imidazol-2-yl)benzyl)amino)pyrazolo[1,5-a]pyrimidin-3-yl)-N-(3-hydroxypropyl)-N,2-dimethylbenzamide] the value was at most 3.98 nM; for `CCC(O)(CC)c1cc(NCc2cccc(-c3nccn3C)c2)n2nc(C)c(-c3ccc(C)c(C(=O)N(C)CCCO)c3)c2n1` [Compound 68, 5-(5-(3-Hydroxypentan-3-yl)-2-methyl-7-((3-(1-methyl-1H-imidazol-2-yl)benzyl)amino)pyrazolo[1,5-a]pyrimidin3-yl)-N-(3-hydroxypropyl)-N,2-dimethylbenzamide], at most 3.98 nM. With `COc1ccc(-c2c(C)nn3c(NCc4cccc(-c5nccn5C)c4)cc(C(C)(C)O)nc23)cc1C(=O)N(C)CC(C)O` (stereo not drawn) [Compound 82, 5-(5-(2-Hydroxypropan-2-yl)-2-methyl-7-((3-(1-methyl-1H-imidazol-2-yl)benzyl)amino)pyrazolo[1,5-a]pyrimidin-3-yl)-N-(2-hydroxypropyl)-2-methoxy-N-methylbenzamide], the IC50 was at most 3.98 nM. For `CCC(CO)c1cc(NCc2cccc(-c3nccn3C)c2)n2nc(C)c(-c3ccc(OC)c(S(=O)(=O)CCO)c3)c2n1` (stereo not drawn) [Compound 86, 2-(3-(3-((2-Hydroxyethyl)sulfonyl)-4-methoxyphenyl)-2-methyl-7-((3-(1-methyl-1H-imidazol-2-yl)benzyl)amino)pyrazolo[1,5-a]pyrimidin-5-yl)butan-1-ol] the value was at most 3.98 nM.
